Results on 16 molecules are retold here after US20090131470A1, “PYRAZOLE-SUBSTITUTED BENZIMIDAZOLE DERIVATIVES FOR USE IN THE TREATMENT OF CANCER AND AUTOIMMUNE DISORDERS” (priority 2005, published 2009).

Usually IC50 stands for the concentration at which inhibition is half-maximal.

Assay type in all cases: biochemical
The target of test [1] is T1, PDK1 (Homo sapiens, UniProt O15530).
T1 sequence (O15530 1-556): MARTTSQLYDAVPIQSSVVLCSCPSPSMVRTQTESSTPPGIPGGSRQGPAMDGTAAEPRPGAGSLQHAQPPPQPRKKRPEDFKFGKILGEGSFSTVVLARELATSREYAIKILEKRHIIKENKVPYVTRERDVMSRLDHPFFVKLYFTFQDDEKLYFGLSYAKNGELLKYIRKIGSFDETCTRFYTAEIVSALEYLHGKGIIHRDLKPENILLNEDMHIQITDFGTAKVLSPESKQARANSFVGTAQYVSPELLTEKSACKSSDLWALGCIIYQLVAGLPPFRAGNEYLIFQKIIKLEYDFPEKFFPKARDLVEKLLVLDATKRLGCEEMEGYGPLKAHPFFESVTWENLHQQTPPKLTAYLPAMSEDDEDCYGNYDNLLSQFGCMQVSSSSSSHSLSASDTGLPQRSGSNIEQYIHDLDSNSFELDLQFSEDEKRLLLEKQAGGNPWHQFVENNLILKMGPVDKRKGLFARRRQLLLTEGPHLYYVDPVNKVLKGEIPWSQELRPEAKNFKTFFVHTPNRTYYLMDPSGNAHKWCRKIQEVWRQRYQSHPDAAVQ
Put plainly: PDK1 kinase assay (33P peptide phosphorylation). The following applies: 0.01 mM ATP, 60 min at 30° C.; read-out: PDK-1 IC50. How it is done: (§1) The assay mixture containing the inhibitor and PDK1 enzyme was mixed together in a microtiter plate in a final volume of 50 μl and incubated for 60 min at 30° C. The assay mixture contained 0.01 mM unlabeled ATP, 0.01 μCi/μl ^33P-γ-ATP, 0.075 mM peptide, 0.1 mg/ml BSA, 7.5 mM magnesium acetate, 0.05M Tris.HCl, pH 7.5, 0.5% 2-mercaptoethanol. The reaction was stopped by adding 50 μl of 50 mM phosphoric acid. 90 μl of the mixture were transferred to a pre-wetted 96-well Multiscreen MAPHNOB filtration plate (Millipore) and filtered on a vacuum manifold. The filter plate was washed with 3 successive additions of 200 μl 50 mM phosphoric acid and then with 100 μl methanol. The filtration plate was dried for 10 min at 65° C., scintillant added and phosphorylated peptide quantified in a scintillation counter (Trilux, PerkinElmer)

For test [2], the target named is T2, GST-Chk1 enzyme (Homo sapiens, UniProt O14757).
T2 sequence (O14757 1-476): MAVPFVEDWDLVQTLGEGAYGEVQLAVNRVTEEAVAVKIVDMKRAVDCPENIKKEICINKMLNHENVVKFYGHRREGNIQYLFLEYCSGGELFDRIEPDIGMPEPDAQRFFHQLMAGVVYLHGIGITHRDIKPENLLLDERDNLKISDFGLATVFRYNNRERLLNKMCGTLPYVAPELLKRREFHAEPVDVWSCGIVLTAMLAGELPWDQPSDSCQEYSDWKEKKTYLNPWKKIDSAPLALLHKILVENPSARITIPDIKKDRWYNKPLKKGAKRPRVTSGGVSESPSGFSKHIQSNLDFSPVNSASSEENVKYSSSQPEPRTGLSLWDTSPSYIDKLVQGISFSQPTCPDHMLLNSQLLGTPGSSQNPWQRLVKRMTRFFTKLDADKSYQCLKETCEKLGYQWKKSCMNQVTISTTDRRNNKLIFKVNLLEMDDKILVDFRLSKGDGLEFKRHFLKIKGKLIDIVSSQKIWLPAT
The test can be described thus: Chk1 kinase assay (33P Chktide phosphorylation). Particulars: 0.01 mM ATP, 40 minutes at 30° C.; read-out: CHK-1 IC50. Here is the method:
as §1, with “Chk1” for “PDK1”, “40 minutes” for “60 min”, “The assay mixture contained 0.01 mM unlabeled ATP, 0.01 μCi/μl ^33P-γ-ATP, 0.075 mM peptide, 0.1 mg/ml BSA, 7.5 mM magnesium acetate, 0.05M Tris.HCl, pH 7.5, 0.5% 2-mercaptoethanol.” left out, “was” for “were”, “multi-screen” for “Multiscreen”

Test [3] deals with T3, Akt1 (Homo sapiens, UniProt P31749).
T3 construct: purchased Upstate
Put plainly: Akt1 kinase assay (Histone H1 substrate). The following applies: 200 μM ATP, read-out: AKT-1 IC50. How it is done:
(§2) Assays for the cyclin dependent kinase activity were carried out by monitoring the phosphorylation of a synthetic peptide, HATTPKKKRK. The assay mixture containing the inhibitor and CDK-2 enzyme, complexed with cyclin A (0.4 U/ml) was mixed together in a microtiter plate in a final volume of 50 μl and incubated for 40 min at 30° C. The assay mixture contained 0.1 mM unlabeled ATP, 0.01 μCi/μl ^33P-γ-ATP, 0.03 mM peptide, 0.1 mg/ml BSA, 7.5 mM magnesium acetate, 50 mM HEPES-NaOH, pH 7.5. The reaction was stopped by adding 50 μl of 50 mM phosphoric acid. 90 μl of the mixture were transferred to a pre-wetted 96-well Multiscreen MAPHNOB filtration plate (Millipore) and filtered on a vacuum manifold. The filter plate was washed with 3 successive additions of 200 μl 50 mM phosphoric acid and then with 100 μl methanol. The filtration plate was dried for 10 min at 65° C., scintillant added and phosphorylated peptide quantified in a scintillation counter (Trilux, PerkinElmer)
Protocol for the Akt assay is the same for CDK2 except that, 3 nM Akt1 (Upstate) was used with Histone H1 as substrate with a final ATP concentration of 200 μM. The reaction was incubated at 30° C. for 40 minutes.

Test [4] deals with T4, PKA (Homo sapiens, UniProt P17612).
T4 construct: purchased Upstate
Put plainly: PKA kinase assay (Kemptide substrate). The following applies: 100 μM ATP. How it is done:
as §2, with “The” for “Assays for the cyclin dependent kinase activity were carried out by monitoring the phosphorylation of a synthetic peptide, HATTPKKKRK. The”
The PKA assay was incubated at 30° C. for 30 minutes.

Test [5] concerns the target CDK-2 enzyme, complexed with cyclin A (Homo sapiens, UniProt P24941). The test can be described thus: CDK2 kinase assay (33P peptide phosphorylation). Particulars: 0.1 mM ATP, cyclin A complex. Here is the method:
as §2, with “The” for “Assays for the cyclin dependent kinase activity were carried out by monitoring the phosphorylation of a synthetic peptide, HATTPKKKRK. The”

T3 sequence (P31749 whole entry, species assumed): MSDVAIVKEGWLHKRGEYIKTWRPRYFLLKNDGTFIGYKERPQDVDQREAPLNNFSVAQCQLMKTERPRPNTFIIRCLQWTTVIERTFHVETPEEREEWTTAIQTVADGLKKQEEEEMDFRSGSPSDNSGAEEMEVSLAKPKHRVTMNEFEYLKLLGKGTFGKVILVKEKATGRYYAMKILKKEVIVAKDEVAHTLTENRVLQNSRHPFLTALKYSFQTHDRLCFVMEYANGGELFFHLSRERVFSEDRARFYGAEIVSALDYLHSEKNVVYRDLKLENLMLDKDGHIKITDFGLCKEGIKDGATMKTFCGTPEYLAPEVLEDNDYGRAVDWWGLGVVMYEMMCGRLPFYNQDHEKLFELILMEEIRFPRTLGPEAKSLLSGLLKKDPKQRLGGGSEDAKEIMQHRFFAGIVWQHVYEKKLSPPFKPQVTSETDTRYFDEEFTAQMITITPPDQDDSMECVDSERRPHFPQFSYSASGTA

On to `Cc1[nH]nc(-c2nc3ccccc3[nH]2)c1C(=O)NC1CCNCC1` [Example 1, 3-(1H-Benzoimidazol-2-yl)-5-methyl-1H-pyrazole-4-carboxylic Acid piperidin-4-ylamide], for which the IC50 in test [1] was 0.108 µM; in test [2] it was 0.098 µM; in test [3] it was 17.1 µM; in test [4], 7.26 µM; in test [5] it was 3.3 µM.
As to `Cc1cc2nc(-c3n[nH]c(C)c3C(=O)NC3CCCNC3)[nH]c2cc1C` (stereo not shown) [Example 2, 3-(5,6-Dimethyl-1H-benzoimidazol-2-yl)-5-methyl-1H-pyrazole-4-carboxylic Acid piperidin-3-ylamide], the IC50 in test [1] came out at 0.219 µM; in test [2] it was 0.055 µM; in test [3] it was 15.9 µM; in test [4], 7.84 µM; in test [5], 3.6 µM.
For `Cc1cc2nc(-c3n[nH]c(C)c3C(=O)NC3CCCN(C)C3)[nH]c2cc1C` (stereo not shown) [Example 3, 3-(5,6-Dimethyl-1H benzoimidazole-2-yl)-5-methyl-1H-pyrazole-4-carboxylic Acid (1-methyl-piperidin-3-yl)-amide] the same measures were 0.44 µM, 0.077 µM, 41.3 µM, 23.4 µM and 30.9 µM.
With `Cc1[nH]nc(-c2nc3ccccc3[nH]2)c1C(=O)NCCCN` [Example 4, 3-(1H-Benzoimidazol-2-yl)-5-methyl-1H-pyrazole-4-carboxylic Acid (3-amino-propyl)-amide], the IC50 is 0.212 µM in test [1]; 0.031 µM in test [2]; > 50 µM in test [3]; 20.7 µM in test [4]; 39.8 µM in test [5].
The like results for `Cc1[nH]nc(-c2nc3cc4ccccc4cc3[nH]2)c1C(=O)NC1CCNCC1` [Example 5, 5-Methyl-3-(1H-naphtho[2,3-d]imidazol-2-yl)-1H-pyrazole-4-carboxylic Acid piperidine-4-ylamide] were, in that order, 0.058 µM, 0.01 µM, > 50 µM, 3.24 µM and 4.54 µM.
The like results for `CCOC(=O)c1ccc2nc(-c3n[nH]c(C)c3C(=O)NC3CCNCC3)[nH]c2c1` [Example 6, 2-[5-Methyl-4-(piperidin-4-ylcarbamoyl)-1H-pyrazol-3-yl]-3H-benzimidazole-5-carboxylic Acid Ethyl Ester] were, in that order, 0.433 µM, 0.023 µM, > 50 µM, 40.2 µM and 39.5 µM.
For the molecule `Cc1[nH]nc(-c2nc3ccc(C(=O)NC4CCCC4)cc3[nH]2)c1C(=O)NC1CCNCC1` [Example 7, 2-[5-Methyl-4-(piperidin-4-ylcarbamoyl)-1H-pyrazol-3-yl]-3H-benzimidazole-5-carboxylic Acid Cyclopentylamide], the IC50 was found to be 0.07 µM in test [1]; 0.043 µM in test [2]; 28.6 µM in test [3]; 12.6 µM in test [4]; 9.24 µM in test [5].
For `Cc1[nH]nc(-c2nc3ccc(-c4cc5ccccc5[nH]4)cc3[nH]2)c1C(=O)NC1CCNCC1` [Example 8, 3-[6-(1H-Indol-2-yl)-1H-benzimidazo-2-yl]-5-methyl-1H-pyrazole-4-carboxylic Acid piperidin-4-ylamide] the same measures were 0.019 µM, 0.012 µM, 5.84 µM, 1.34 µM and 2.8 µM.
Regarding `Cc1[nH]nc(-c2nc3ccccc3[nH]2)c1C(=O)NCC1CCNCC1` [Example 9], the IC50 stood at 0.129 µM in test [1]; 0.208 µM in test [2]; 11.1 µM in test [3]; 7.51 µM in test [4]; 47 µM in test [5].
For `Cc1[nH]nc(-c2nc3ccccc3[nH]2)c1C(=O)NC1CCN(Cc2ccccc2)CC1` [Example 10] the same measures were 0.435 µM, 0.107 µM, > 50 µM, 29.1 µM and 44 µM.
The like results for `Cc1[nH]nc(-c2nc3cc4nc[nH]c4cc3[nH]2)c1C(=O)NC1CCNCC1` [Example 11] were, in that order, 0.12 µM, 0.088 µM, > 50 µM, 7.77 µM and 38.9 µM.
For `Cc1[nH]nc(-c2nc3c(F)c(F)ccc3[nH]2)c1C(=O)NC1CCNCC1` [Example 12] the same measures were 0.485 µM, 0.609 µM, > 50 µM, 20.9 µM and 10.5 µM.
Consider `Cc1[nH]nc(-c2nc3cc(F)c(F)cc3[nH]2)c1C(=O)NC1CCNCC1` [Example 13], for which the half-maximal inhibitory concentration (IC50) is 0.52 µM in test [1]; 0.508 µM in test [2]; > 50 µM in test [3]; 19.3 µM in test [4]; 7.92 µM in test [5].
Turning to `Cc1[nH]nc(-c2nc3ccc(C(=O)NC4CCc5ccccc54)cc3[nH]2)c1C(=O)NC1CCNCC1` (stereo not shown) [Example 48], in test [1], the IC50 was < 0.05 µM.
As to `Cc1[nH]nc(-c2nc3ccc(C(C)C)cc3[nH]2)c1C(=O)NC1CC2CCC(C1)N2C` (stereo not shown) [Example 49], the IC50 in test [1] and in test [2] was < 0.5 µM in each case.
For `Cc1[nH]nc(-c2nc3ccccc3[nH]2)c1C(=O)NCCN` [Example 50], the IC50 in test [1] and in test [2] was < 0.5 µM in each case.
